Test results as given in patent US20140364483A1, “ALTERNATIVE SPLICING VARIANTS OF GENES ASSOCIATED WITH PROSTATE CANCER RISK AND SURVIVAL” (The George Washington University, priority 2011, published 2014).
d = 2'-deoxy (DNA); r = 2'-OH (RNA); {P} = phosphate

Assays:
Assay type in all cases: cell-based, human
AKT pathway = AKT pathway phosphorylation after knockdown of PIK3CD long variant
Excerpt: Activation of AKT is known to promote cell growth and mRNA translation (FIG. 9a). When the expression of PIK3CD “long” variant is knocked down by siRNA targeting of Exon 23 in the VCaP cell line, which only expresses the long variant, there is a decrease of phosphorylation of AKT, compared to nonsense siRNA control, and also decrease of phosphorylation of downstream signaling proteins mTOR and S6 (FIG. 9b). […] In other words, increasing S/L variants proportion in MDA PCa 2b cells activates the AKT pathways.

VCaP cells [1] = assay: Matrigel invasion after siRNA knockdown of splice variants; conditions: CA PCa cell line VCaP
Excerpt: (§1) The predominant expression of the L variant and very little to no expression of the S variant in the CA PCa cell line is consistent with the CA patient samples (see PIK3CD in FIG. 4). SiRNA-mediated knockdown of the L variant in VCaP cells leads to a decrease in Matrigel invasion and a decrease in proliferation (FIG. 7A). By comparison, the AA PCa cell line MDA PCa 2b expresses both an L and S variant, and knockdown of the L variant leads to an increase in Matrigel invasion and an increase in proliferation (FIG. 7A). Since VCaP cells express very little to no S variant, targeted siRNA-mediated knockdown of this variant leads to no change in Matrigel invasion and proliferation (FIG. 7B). In contrast, targeted knockdown of the S variant in MDA PCa 2b cells leads to decreased Matrigel invasion and decreased proliferation (since the S variant is found almost exclusively in AA patient samples, it is referred to as the ‘AA variant’) (FIG. 7B). […] Analogous findings were obtained in MDA PCa 2b cells when the ratio of the ‘AA variant’ (S or b isoform) was increased over the ‘CA variant’ (L or an isoform) for the FGFR3, TSC2.
(§2) For RASGRP2, the long variant (with exon 10) is common to both AA and CA patients, whereas the short variant (without exon 10) is unique to AA. Targeted knockdown of the long splicing variant in VCaP cells reduced Matrigel invasion and an increase in proliferation (FIG. 8).

MDA PCa 2b cells [2] = assay: as above; conditions: AA PCa cell line MDA PCa 2b
Excerpt: as §1, §2

VCaP cells [3] = assay: Cell proliferation after siRNA knockdown of splice variants; conditions: CA PCa cell line VCaP
Excerpt: as §1, §2

MDA PCa 2b cells [4] = assay: as above; conditions: AA PCa cell line MDA PCa 2b
Excerpt: as §1, §2

[5] = VCaP cell line, compared to nonsense siRNA control

For “siPIK3CD-ex23: siRNA duplex SEQ ID Nos. 4 and 5, sense 5′ CCAACAUCCAACUCAACAAdTdT 3′; knocks down PIK3CD long variant (antisense UUGUUGAGUUGGAUGUUGG; sense: RNA, 3' dTdT, backbone not given here; antisense: RNA, 5' {P}, 3' dTdT, backbone not given here)”, the “AKT phosphorylation, both on Thr308 and Ser473” value (AKT pathway; MDA PCa 2b cells) was “markedly increases”, the “phosphorylation of mTOR and S6” value (AKT pathway; MDA PCa 2b cells) was “increases” and the “phosphorylation of AKT” value (AKT pathway; [5]) was “decrease”. For the same substance, the “phosphorylation of downstream signaling proteins mTOR and S6” value (AKT pathway; [5]) was “decrease”, the Matrigel invasion (VCaP cells [1]) was “decrease” and the Matrigel invasion (MDA PCa 2b cells [2]) was “increase”. The proliferation (VCaP cells [3]) was “decrease” and the proliferation (MDA PCa 2b cells [4]) was “increase”.

With “siPIK3CD-S: siRNA duplex SEQ ID Nos. 12 and 13, sense 5′ UGAGGGAGGCCCUGGAUCGAdTdT 3′; knocks down PIK3CD short variant (antisense UCGAUCCAGGGCCUCCCUCA; sense: RNA, 3' dTdT, backbone not given here; antisense: RNA, 5' {P}, 3' dTdT, backbone not given here)” the Matrigel invasion (VCaP cells [1]) was “no change”, the Matrigel invasion (MDA PCa 2b cells [2]) was “decreased” and the proliferation (VCaP cells [3]) was “no change”. The proliferation (MDA PCa 2b cells [4]) was “decreased”.

For “siRNA targeting RASGRP2 exon 10: siRNA duplex SEQ ID Nos. 40 and 41, sense 5′ GUGGAGCACAUCGAGAAGAdTdT 3′; long variant contains exon 10 (sense GUGGAGCACAUCGAGAAGATT; antisense UCUUCUCGAUGUGCUCCAC; sense: sugars from the 5' end r19 d2, backbone not given here; antisense: chemistry not given here)”, the Matrigel invasion (VCaP cells [1]) was “reduced”, the Matrigel invasion (MDA PCa 2b cells [2]) was “opposite effect” and the proliferation (VCaP cells [3]) was “increase”. For the same substance, the proliferation (MDA PCa 2b cells [4]) was “opposite effect”.
